# Measured values taken from ChEMBL document CHEMBL4382277, “Novel Fluorescence Competition Assay for Retinoic Acid Binding Proteins” (ACS Med Chem Lett, 2018).
# pKd: −log10 of the molar value. The source made the active and inactive calls. The rule behind the calls is not given here.
# Molecular target: T1, Cellular retinoic acid-binding protein 2 (Homo sapiens) (UniProt P29373)
# T1 sequence (whole entry): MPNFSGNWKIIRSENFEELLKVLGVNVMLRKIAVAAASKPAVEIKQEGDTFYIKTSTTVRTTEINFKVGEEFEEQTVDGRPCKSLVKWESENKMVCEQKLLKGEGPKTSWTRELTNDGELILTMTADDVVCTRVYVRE
# Assay: Displacement of DC271 from CRABP2 (unknown origin) at 200 to 1600 nM by fluorescence assay
row,SMILES,inhibition
1,O=C(O)c1ccccc1,inactive
2,CC1=C(/C=C/C(C)=C\C=C\C(C)=C\C(=O)O)C(C)(C)CCC1,Active
3,CC1=C(/C=C/C(C)=C/C=C/C(C)=C\C(=O)O)C(C)(C)CCC1,inactive
4,CC1=C(/C=C/C(C)=C/C=C/C(C)=C/C(=O)O)C(C)(C)CCC1,Active
5,c1ccc2ncccc2c1,inactive

# Molecular target: T2, Cellular retinoic acid-binding protein 2 (Homo sapiens, UniProt P29373)
# T2 sequence (P29373 whole entry): T1 sequence (whole entry)
# Assay: Displacement of DC271 from CRABP2 (unknown origin) by fluorescence assay
row,SMILES,pKd
1,CC1(C)CCC(C)(C)c2cc(C#Cc3ccc(C(=O)O)cc3)ccc21,6.80
